# Assay results reported in PubChem BioAssay (NCI).
#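 Values below derive from 48-hour exposures of cells grown in 96-well plates, with endpoints linearly interpolated between the two concentrations bracketing the appropriate inhibition level. TGI is the concentration that stops growth completely.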
# Columns and labels:
# Assay in all cases: inhibition of tumour cell growth, NCI panel, 48 h
# 786-0 renal = test system: 786-0 renal
# A498 renal = test system: A498 renal
# A549 NSCLC = test system: A549 NSCLC
# ACHN renal = test system: ACHN renal
# CAKI-1 renal = test system: CAKI-1 renal
# CCRF-CEM leukemia = test system: CCRF-CEM leukemia
# COLO 205 colon = test system: COLO 205 colon
# DMS 114 small cell lung = test system: DMS 114 small cell lung
# DMS 273 small cell lung = test system: DMS 273 small cell lung
# EKVX NSCLC = test system: EKVX NSCLC
# HCT-116 colon = test system: HCT-116 colon
# HCT-15 colon = test system: HCT-15 colon
# HL-60(TB) leukemia = test system: HL-60(TB) leukemia
# HOP-18 NSCLC = test system: HOP-18 NSCLC
# HOP-62 NSCLC = test system: HOP-62 NSCLC
# HOP-92 NSCLC = test system: HOP-92 NSCLC
# HT29 colon = test system: HT29 colon
# IGROV1 ovarian = test system: IGROV1 ovarian
# K-562 leukemia = test system: K-562 leukemia
# KM12 colon = test system: KM12 colon
# KM20L2 colon = test system: KM20L2 colon
# LOX IMVI melanoma = test system: LOX IMVI melanoma
# LXFL 529 NSCLC = test system: LXFL 529 NSCLC
# M14 melanoma = test system: M14 melanoma
# M19-MEL melanoma = test system: M19-MEL melanoma
# MALME-3M melanoma = test system: MALME-3M melanoma
# MOLT-4 leukemia = test system: MOLT-4 leukemia
# NCI-H226 lung = test system: NCI-H226 lung
# NCI-H23 lung = test system: NCI-H23 lung
# NCI-H460 lung = test system: NCI-H460 lung
# NCI-H522 lung = test system: NCI-H522 lung
# OVCAR-3 ovarian = test system: OVCAR-3 ovarian
# OVCAR-4 ovarian = test system: OVCAR-4 ovarian
# OVCAR-5 ovarian = test system: OVCAR-5 ovarian
# OVCAR-8 ovarian = test system: OVCAR-8 ovarian
# RPMI-8226 leukemia = test system: RPMI-8226 leukemia
# RXF 393 renal = test system: RXF 393 renal
# RXF-631 renal = test system: RXF-631 renal
# SF-268 CNS = test system: SF-268 CNS
# SF-295 CNS = test system: SF-295 CNS
# SF-539 CNS = test system: SF-539 CNS
# SK-MEL-2 melanoma = test system: SK-MEL-2 melanoma
# SK-MEL-28 melanoma = test system: SK-MEL-28 melanoma
# SK-MEL-5 melanoma = test system: SK-MEL-5 melanoma
# SK-OV-3 ovarian = test system: SK-OV-3 ovarian
# SN12C renal = test system: SN12C renal
# SNB-19 CNS = test system: SNB-19 CNS
# SNB-75 CNS = test system: SNB-75 CNS
# SNB-78 CNS = test system: SNB-78 CNS
# SW-620 colon = test system: SW-620 colon
# TK-10 renal = test system: TK-10 renal
# U251 CNS = test system: U251 CNS
# UACC-257 melanoma = test system: UACC-257 melanoma
# UACC-62 melanoma = test system: UACC-62 melanoma
# UO-31 renal = test system: UO-31 renal
# XF 498 CNS = test system: XF 498 CNS
smiles,measurement,setting,value
C[C@]12CCC3[C@@H](CC[C@@H]4c5nonc5CC[C@]34C)C1CCC2=O (stereo partly specified),TGI,786-0 renal,64.3 µM
same,TGI,A498 renal,68.2 µM
same,TGI,A549 NSCLC,92.4 µM
same,TGI,ACHN renal,77.7 µM
same,TGI,CAKI-1 renal,95.5 µM
same,TGI,CCRF-CEM leukemia,61.3 µM
same,TGI,COLO 205 colon,33.3 µM
same,TGI,DMS 114 small cell lung,53.9 µM
same,TGI,DMS 273 small cell lung,47.1 µM
same,TGI,EKVX NSCLC,83.1 µM
same,TGI,HCT-116 colon,31.7 µM
same,TGI,HCT-15 colon,> 100 µM
same,TGI,HL-60(TB) leukemia,38.9 µM
same,TGI,HOP-18 NSCLC,> 100 µM
same,TGI,HOP-62 NSCLC,> 100 µM
same,TGI,HOP-92 NSCLC,51.5 µM
same,TGI,HT29 colon,41.1 µM
same,TGI,IGROV1 ovarian,> 100 µM
same,TGI,K-562 leukemia,> 100 µM
same,TGI,KM12 colon,50.2 µM
same,TGI,KM20L2 colon,> 100 µM
same,TGI,LOX IMVI melanoma,39.5 µM
same,TGI,LXFL 529 NSCLC,59.8 µM
same,TGI,M14 melanoma,37 µM
same,TGI,M19-MEL melanoma,52.8 µM
same,TGI,MALME-3M melanoma,52.6 µM
same,TGI,MOLT-4 leukemia,61 µM
same,TGI,NCI-H226 lung,62.7 µM
same,TGI,NCI-H23 lung,92.5 µM
same,TGI,NCI-H460 lung,39.7 µM
same,TGI,NCI-H522 lung,50.1 µM
same,TGI,OVCAR-3 ovarian,40.4 µM
same,TGI,OVCAR-4 ovarian,84 µM
same,TGI,OVCAR-5 ovarian,> 100 µM
same,TGI,OVCAR-8 ovarian,> 100 µM
same,TGI,RPMI-8226 leukemia,44 µM
same,TGI,RXF 393 renal,78.3 µM
same,TGI,RXF-631 renal,> 100 µM
same,TGI,SF-268 CNS,> 100 µM
same,TGI,SF-295 CNS,79.3 µM
same,TGI,SF-539 CNS,45.9 µM
same,TGI,SK-MEL-2 melanoma,56.5 µM
same,TGI,SK-MEL-28 melanoma,63.8 µM
same,TGI,SK-MEL-5 melanoma,31.4 µM
same,TGI,SK-OV-3 ovarian,> 100 µM
same,TGI,SN12C renal,47.3 µM
same,TGI,SNB-19 CNS,> 100 µM
same,TGI,SNB-75 CNS,93.6 µM
same,TGI,SNB-78 CNS,99.7 µM
same,TGI,SW-620 colon,> 100 µM
same,TGI,TK-10 renal,> 100 µM
same,TGI,U251 CNS,32.5 µM
same,TGI,UACC-257 melanoma,40.4 µM
same,TGI,UACC-62 melanoma,52.3 µM
same,TGI,UO-31 renal,39 µM
same,TGI,XF 498 CNS,44.4 µM
